Data set [1] relates to rats with dry eye syndrome (extraorbital lacrimal gland excision, ELGE). Kind of data set: Amount of tear secretion (Schirmer test, cobalt chloride paper) in rats with ELGE-induced dry eye syndrome. It is filed as in vivo, rat. Particulars: 0.3% solution (DS 3%), administration for 14 days.
Text: (§1) In order to evaluate the eye protection effect on dry eye syndrome by YDE-001 to YDE-028 prepared in Working Example 1, a total of 320 Sprague-Dawley-type male rats (OrientBio, Seungnam, Korea) were adapted for 7 days. Thereafter, dry eye syndrome was induced in 264 test rats through extraorbital lacrimal gland excision (hereinafter, ELGE). 8 test rats without the eye abnormality were subjected to a sham operation as a control group.
(§2) The rats were systemically anesthetized by inhaling a mixed gas of 2% to 3% of isoflurane (Hana Pharm. Co., Hwasung, Korea), 70% of N2O, and 28.6% of O2 using a rodent anesthesia machine (Surgivet, Waukesha, Wis., USA) and a ventilator (Model 687, Harvard Apparatus, Cambridge, UK). Thereafter, the extraorbital lacrimal gland located in the subdermal area above the masseter muscle and under the optic nerve was excised through a transverse incision in a size of 10 mm on the anterior part of the left ear tragus. The skin was sutured by a general method. […] After 6 days following the ELGE operation, confirmation was performed through the Schirmer test by measuring the amount of tear secretion whether dry eye syndrome had been induced. Meanwhile, each rat of the control group with the sham operation was checked for the presence and location of the extraorbital lacrimal gland through a skin incision, and the skin was then sutured without the excision thereof (FIG. 134).
(§3) In addition, in order to evaluate the eye protection effect on dry eye syndrome by YDE-029 to YDE-043 prepared in Working Example 1, a total of 200 Sprague-Dawley-type male rats (OrientBio, Seungnam, Korea) were adapted for 7 days. Dry eye syndrome was induced in 165 test rats through the ELGE. 8 test rats without the eye abnormality were subjected to the sham operation as a control group. The ELGE was carried out as described above.
(§4) For YDE-001 to YDE-028, YY-102 and the 28 YDE-series were each dissolved in physiological saline at a concentration of 3 mg/ml and administered at a dose of 5 μl/eye at 9:30 am and 3:30 pm daily for 14 days after 7 days from the ELGE operation for a total of 28 times. The DS solution was dissolved in physiological saline at a concentration of 30 mg/ml and administered at a dose of 5 μl/eye twice a day for 14 days after 7 days from the ELGE operation for a total of 28 times. For the sham control and the ELGE control groups, the same stimulation as the administration was applied. In order to prevent excessive eye dryness, the same volume of physiological saline was applied in the same manner in place of the test substances.
as §4, with “Further, For YDE-029” for “For YDE-001”, “Further, For YDE-029 to YDE-043,” for “For YDE-001 to YDE-028,”, “YDE-029 to YDE-043, YY-102 and” for “YDE-001 to YDE-028, YY-102 and”, “and the 15 YDE-series were” for “and the 28 YDE-series were”, “the test substances (FIG. 137).” for “the test substances.”
After 6 days from the ELGE surgery, the changes in the amount of tear secretion were measured at day 7 and day 14 after the administration of YDE-001 to YDE-043. The amount of tear secretion was measured by the […] travel distance of tears absorbed by cobalt chloride paper in a size of 1×15 mm (Toyo Roshi Kaisha, Japan).
The cobalt chloride paper was placed in the lateral canthus of a rat for 60 seconds to absorb tears (FIG. 139). The length of the area absorbed from the corner of the cobalt chloride paper was measured with an electronic digital caliper (Mytutoyo, Tokyo, Japan) (FIG. 138).

Data set [2] can be described thus: Stability in aqueous solution, amount of related substances under long-term storage conditions. It is filed as physicochemical. Particulars: glass vial, 25° C., 75% RH. As to the method: In order to confirm the stability of each test substance in an aqueous solution, […] of each sample was dissolved in 1 ml of water to a concentration of 1 mg/ml, which was then charged to a glass vial, plugged with a rubber cap, sealed with an aluminum cap, and stored under long-term storage conditions (25° C., 75% RH). The stability of the test substance was evaluated by measuring the amount of related substances at the time of one week, two weeks, four weeks, eight weeks, and twelve weeks under the long-term storage conditions.

The test system of data set [3] is cornea of rats with dry eye syndrome (ELGE). Kind of data set: Corneal permeability of fluorescent dye (corneal damage) in rats with ELGE-induced dry eye syndrome. Format: in vivo, rat. As to conditions: 0.3% solution, day 14 after the administration.
Text: as §1, §2, §3, §4
as §4, with “Further, For YDE-029” for “For YDE-001”, “Further, For YDE-029 to YDE-043,” for “For YDE-001 to YDE-028,”, “YDE-029 to YDE-043, YY-102 and” for “YDE-001 to YDE-028, YY-102 and”, “and the 15 YDE-series were” for “and the 28 YDE-series were”, “the test substances (FIG. 137).” for “the test substances.”
After YDE-001 to YDE-028 were each administered to the eyes […], the changes in the corneal permeability were checked.
In order to measure the corneal permeability, Zolethyl 50™ (Virbac Lab., Carros, France), an animal anesthetic, was intraperitoneally injected at a dose of 25 mg/kg. Thereafter, saline containing a 1% (v/v) fluorescent solution (fluorescein sodium salt, Tokyo Kasei Kogyo Co., Tokyo, Japan) was applied to the eyes at a dose of 5 μl/eye. The eyes thus treated were closed and fixed with a tape. After 1 hour, the remaining fluorescent solution was removed using a cotton swab (FIG. 142). […]

[4] abbreviates: study of YDE-001 to YDE-028 (Table 16).
[5] abbreviates: study of YDE-029 to YDE-043 (Table 17).

Each structure is given as a SMILES string. Non-standard residues stand in square brackets, D forms with d. Residues, ends and D or L forms follow the SMILES beside them. ξ: configuration not given here. cisHyp = O=C(O)[C@@H]1C[C@H](O)CN1; Hyp = O=C(O)[C@@H]1C[C@@H](O)CN1; Ile(3ξ) = CCC(C)[C@H](N)C(=O)O; pGlu = O=C1CC[C@@H](C(=O)O)N1

As to `CC(C)C[C@H](NC(=O)CNC(=O)[C@@H](NC(=O)[C@H](CCC(N)=O)NC(=O)CNC(=O)[C@@H]1C[C@@H](O)CN1)C(C)C)C(=O)N[C@@H](C)C(=O)NCC(=O)N1CCC[C@H]1C(=O)N[C@@H](CCCCN)C(=O)O` [YDE-009, HyP-Gly-Gln-Val-Gly-Leu-Ala-Gly-Pro-Lys] (H-[Hyp]GQVGLAGPK-OH), the “Amount of tear secretion as compared with the ELGE control group” value in data set [1] (study of YDE-001 to YDE-028) is listed as “did not show any significant changes”. Further, the “Amount of related substances (%; after 12 weeks)” value (from here on “Amount … (%; after 12 weeks)”) in data set [2] is 4.71%. Also, the “Permeability of fluorescent dye (%)” value in data set [3] (setting [4]) amounted to 41.50 ± 7.86%.
The like results for `CCC(C)[C@H](NC(=O)[C@H](CCC(N)=O)NC(=O)CNC(=O)[C@@H]1C[C@@H](O)CN1)C(=O)NCC(=O)N[C@@H](CC(C)C)C(=O)N[C@@H](C)C(=O)NCC(=O)N1CCC[C@H]1C(=O)N[C@@H](CCCCN)C(=O)O` (stereo partly drawn) [YDE-010, HyP-Gly-Gln-Ile-Gly-Leu-Ala-Gly-Pro-Lys] (H-[Hyp]GQ[Ile(3ξ)]GLAGPK-OH) were, in that order, “did not show any significant changes”, 4.39% and 49.29 ± 12.06%.
As to `CC(C)C[C@H](NC(=O)[C@H](CC(C)C)NC(=O)[C@H](CC(=O)O)NC(=O)[C@H](CCC(N)=O)NC(=O)CNC(=O)[C@@H]1C[C@@H](O)CN1)C(=O)N[C@@H](C)C(=O)NCC(=O)N1CCC[C@H]1C(=O)N[C@@H](CCCCN)C(=O)O` [YDE-017, HyP-Gly-Gln-Asp-Leu-Leu-Ala-Gly-Pro-Lys] (H-[Hyp]GQDLLAGPK-OH), the “Amount of tear secretion as compared with the ELGE control group” value in data set [1] (study of YDE-001 to YDE-028) is “did not show any significant changes”. The “Amount … (%; after 12 weeks)” value in data set [2] was 11.88%. For the same compound, in data set [3] (setting [4]), the “Permeability of fluorescent dye (%)” value turned out to be 39.76 ± 7.42%.
The like results for `CC(C)C[C@H](NC(=O)[C@H](Cc1ccccc1)NC(=O)[C@H](CC(=O)O)NC(=O)[C@H](CCC(N)=O)NC(=O)CNC(=O)[C@@H]1C[C@@H](O)CN1)C(=O)N[C@@H](C)C(=O)NCC(=O)N1CCC[C@H]1C(=O)N[C@@H](CCCCN)C(=O)O` [YDE-019, HyP-Gly-Gln-Asp-Phe-Leu-Ala-Gly-Pro-Lys] (H-[Hyp]GQDFLAGPK-OH) were, in that order, “did not show any significant changes”, 13.43% and 40.39 ± 12.57%.
In the case of `CC(C)C[C@H](NC(=O)[C@H](Cc1ccc(O)cc1)NC(=O)[C@H](CC(=O)O)NC(=O)[C@H](CCC(N)=O)NC(=O)CNC(=O)[C@@H]1C[C@@H](O)CN1)C(=O)N[C@@H](C)C(=O)NCC(=O)N1CCC[C@H]1C(=O)N[C@@H](CCCCN)C(=O)O` [YDE-020, HyP-Gly-Gln-Asp-Tyr-Leu-Ala-Gly-Pro-Lys] (H-[Hyp]GQDYLAGPK-OH), the “Amount of tear secretion as compared with the ELGE control group” value in data set [1] (study of YDE-001 to YDE-028) is “did not show any significant changes”. The “Amount … (%; after 12 weeks)” value in data set [2] is recorded as 21.54%. Besides, in data set [3] (setting [4]), the “Permeability of fluorescent dye (%)” value is listed as 47.84 ± 13.47%.
`CC(C)C[C@H](NC(=O)[C@H](Cc1c[nH]c2ccccc12)NC(=O)[C@H](CC(=O)O)NC(=O)[C@H](CCC(N)=O)NC(=O)CNC(=O)[C@@H]1C[C@@H](O)CN1)C(=O)N[C@@H](C)C(=O)NCC(=O)N1CCC[C@H]1C(=O)N[C@@H](CCCCN)C(=O)O` [YDE-021, HyP-Gly-Gln-Asp-Trp-Leu-Ala-Gly-Pro-Lys] (H-[Hyp]GQDWLAGPK-OH): the “Amount of tear secretion as compared with the ELGE control group” value in data set [1] (study of YDE-001 to YDE-028) is recorded as “did not show any significant changes”. Also, the “Amount … (%; after 12 weeks)” value in data set [2] came to 21.33%. Also, the “Permeability of fluorescent dye (%)” value in data set [3] (setting [4]) is reported as 37.00 ± 10.49%.
The like results for `CC(C)C[C@H](NC(=O)[C@H](Cc1c[nH]cn1)NC(=O)[C@H](CC(=O)O)NC(=O)[C@H](CCC(N)=O)NC(=O)CNC(=O)[C@@H]1C[C@@H](O)CN1)C(=O)N[C@@H](C)C(=O)NCC(=O)N1CCC[C@H]1C(=O)N[C@@H](CCCCN)C(=O)O` [YDE-022, HyP-Gly-Gln-Asp-His-Leu-Ala-Gly-Pro-Lys] (H-[Hyp]GQDHLAGPK-OH) were, in that order, “did not show any significant changes”, 19.23% and 47.82 ± 10.01%.
Regarding `COC(=O)C[C@H](NC(=O)[C@H](CCC(N)=O)NC(=O)CNC(=O)[C@@H]1C[C@@H](O)CN1)C(=O)NCC(=O)N[C@@H](CC(C)C)C(=O)N[C@@H](C)C(=O)NCC(=O)N1CCC[C@H]1C(=O)N[C@@H](CCCCN)C(=O)O` [YDE-027, HyP-Gly-Gln-Asp(Me)-Gly-Leu-Ala-Gly-Pro-Lys] (H-[Hyp]GQD(OMe)GLAGPK-OH), the “Amount of tear secretion as compared with the ELGE control group” value in data set [1] (study of YDE-001 to YDE-028) is “did not show any significant changes”. Moreover, the “Amount … (%; after 12 weeks)” value in data set [2] came out at 12.74%. Besides, in data set [3] (setting [4]), the “Permeability of fluorescent dye (%)” value was 50.24 ± 11.94%.
Take `CC(C)C[C@H](NC(=O)CNC(=O)[C@H](CC(C)C)NC(=O)[C@H](CCC(N)=O)NC(=O)CNC(=O)[C@@H]1C[C@H](O)CN1)C(=O)N[C@@H](C)C(=O)NCC(=O)N1CCC[C@H]1C(=O)N[C@@H](CCCCN)C(=O)O` [YDE-034, Hyp(2S, 4S)-Gly-Gln-Leu-Gly-Leu-Ala-Gly-Pro-Lys] (H-[cisHyp]GQLGLAGPK-OH): the “Amount of tear secretion as compared with the ELGE control group” value in data set [1] (study of YDE-029 to YDE-043) is listed as “did not show any significant changes”. For the same compound, the “Permeability of fluorescent dye (%)” value in data set [3] (setting [5]) is 32.17 ± 12.94%.
Consider `CC(C)C[C@H](NC(=O)CNC(=O)[C@H](CC(C)C)NC(=O)[C@H](CCC(N)=O)NC(=O)CNC(=O)[C@@H]1CCC(=O)N1)C(=O)N[C@@H](C)C(=O)NCC(=O)N1CCC[C@H]1C(=O)N[C@@H](CCCCN)C(=O)O` [YDE-036, (5-oxo)Pro-Gly-Gln-Leu-Gly-Leu-Ala-Gly-Pro-Lys] ([pGlu]GQLGLAGPK-OH), for which the “Amount of tear secretion as compared with the ELGE control group” value in data set [1] (study of YDE-029 to YDE-043) is reported as “did not show any significant changes”. Moreover, the “Permeability of fluorescent dye (%)” value in data set [3] (setting [5]) was 57.87 ± 22.91%.
For `CC(C)C[C@H](NC(=O)CNC(=O)[C@H](CC(C)C)NC(=O)[C@H](CCC(N)=O)NC(=O)CNC(=O)[C@@H]1C[C@@H](O)CN1)C(=O)N[C@@H](C)C(=O)O` [YDE-041, HyP-Gly-Gln-Leu-Gly-Leu-Ala] (H-[Hyp]GQLGLA-OH), in data set [1] (study of YDE-029 to YDE-043), the “Amount of tear secretion as compared with the ELGE control group” value is “did not show any significant changes”. The “Permeability of fluorescent dye (%)” value in data set [3] (setting [5]) came out at 46.38 ± 26.65%.
